Measured values reported in ChEMBL document CHEMBL1201862, “PubChem BioAssay data set” (2004).
Each block holds one compound with its values, some of them ahead of it. Activity calls are given as the source filed them.

How the values were obtained:
Cytochrome P450 1A2 = molecular target: T1, Cytochrome P450 1A2 (Homo sapiens, UniProt P05177);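 note: PubChem cytochrome P450 panel assay, CYP1A2 panel member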
T1 sequence (P05177 whole entry): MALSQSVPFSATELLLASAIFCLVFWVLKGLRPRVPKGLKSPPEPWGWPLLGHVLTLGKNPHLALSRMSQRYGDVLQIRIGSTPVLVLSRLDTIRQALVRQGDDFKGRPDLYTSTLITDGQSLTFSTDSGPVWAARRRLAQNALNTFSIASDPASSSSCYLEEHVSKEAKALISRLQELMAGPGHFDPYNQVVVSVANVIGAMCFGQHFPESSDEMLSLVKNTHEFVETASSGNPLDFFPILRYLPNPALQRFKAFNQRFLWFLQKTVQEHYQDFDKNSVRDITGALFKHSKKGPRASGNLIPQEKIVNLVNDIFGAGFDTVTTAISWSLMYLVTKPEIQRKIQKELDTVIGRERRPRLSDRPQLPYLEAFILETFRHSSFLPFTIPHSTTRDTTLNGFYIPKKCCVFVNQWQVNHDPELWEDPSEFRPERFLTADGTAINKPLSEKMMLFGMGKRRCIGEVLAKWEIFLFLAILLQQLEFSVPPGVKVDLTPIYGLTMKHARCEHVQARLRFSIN

Cytochrome P450 2C9 = Cytochrome P450 2C9 (Homo sapiens, UniProt P11712)
Cytochrome P450 2C9, sequence (P11712 whole entry): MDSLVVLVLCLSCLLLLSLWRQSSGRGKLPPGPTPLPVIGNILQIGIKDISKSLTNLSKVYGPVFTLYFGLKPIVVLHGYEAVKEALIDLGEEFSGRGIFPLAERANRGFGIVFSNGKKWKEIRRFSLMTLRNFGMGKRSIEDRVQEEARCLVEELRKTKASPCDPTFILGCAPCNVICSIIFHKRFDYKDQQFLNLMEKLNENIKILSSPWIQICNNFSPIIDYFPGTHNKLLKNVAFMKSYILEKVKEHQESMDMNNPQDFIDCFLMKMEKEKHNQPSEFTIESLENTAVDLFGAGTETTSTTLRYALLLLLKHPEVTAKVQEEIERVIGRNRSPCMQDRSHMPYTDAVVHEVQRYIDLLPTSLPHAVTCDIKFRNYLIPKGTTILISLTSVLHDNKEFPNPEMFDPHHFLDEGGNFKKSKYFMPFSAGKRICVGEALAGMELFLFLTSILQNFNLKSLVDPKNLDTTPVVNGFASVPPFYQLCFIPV

[1] = molecular target: T2, Corticotropin-releasing factor receptor 2/Corticotropin-releasing factor-binding protein (Homo sapiens, UniProt P24387+Q13324); assay: Dose Response confirmation of uHTS hits for small molecule antagonists of the CRF-binding protein and CRF-R2 receptor complex.; assay type: functional; details: read-out: IC50_Mean
T2 sequence (Q13324 whole entry): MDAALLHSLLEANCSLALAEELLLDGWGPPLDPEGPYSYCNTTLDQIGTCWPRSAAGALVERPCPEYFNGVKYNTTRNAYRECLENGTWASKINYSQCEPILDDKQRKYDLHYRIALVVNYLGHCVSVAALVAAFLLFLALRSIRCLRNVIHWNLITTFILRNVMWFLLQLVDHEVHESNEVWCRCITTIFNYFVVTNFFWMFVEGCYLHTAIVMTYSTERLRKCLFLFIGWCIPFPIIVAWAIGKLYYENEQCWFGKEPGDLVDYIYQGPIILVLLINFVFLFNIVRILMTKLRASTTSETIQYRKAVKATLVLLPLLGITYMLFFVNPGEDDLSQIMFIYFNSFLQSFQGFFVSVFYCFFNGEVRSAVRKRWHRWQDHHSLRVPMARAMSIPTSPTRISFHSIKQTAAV
T2 sequence (P24387 whole entry): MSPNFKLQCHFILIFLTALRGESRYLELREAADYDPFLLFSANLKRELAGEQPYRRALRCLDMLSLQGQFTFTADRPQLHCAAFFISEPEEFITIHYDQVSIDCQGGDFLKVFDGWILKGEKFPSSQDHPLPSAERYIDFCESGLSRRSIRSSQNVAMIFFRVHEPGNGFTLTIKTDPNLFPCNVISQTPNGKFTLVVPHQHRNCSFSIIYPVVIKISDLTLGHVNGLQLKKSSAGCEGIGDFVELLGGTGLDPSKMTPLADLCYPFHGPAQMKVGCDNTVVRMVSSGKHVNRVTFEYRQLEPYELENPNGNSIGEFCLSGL

[2] = molecular target: T2, Corticotropin-releasing factor receptor 2/Corticotropin-releasing factor-binding protein; assay: activators of CRF receptor 2 with binding protein – uHTS hits, confirmation (AID 602473); assay type: functional; details: read-out: EC50_Mean
[3] = CRF-BP/CRF-R2 complex antagonists, dose response, cell-based, uHTS hits, 384-well (AID 651639); assay type: functional, Homo sapiens; details: read-out: IC50_Mean
Vero = Vero cell cytotoxicity, cytotoxicity control for flavivirus capping enzyme inhibitors (AID 588742); assay type: functional; details: Chlorocebus sabaeus
Genome polyprotein = Genome polyprotein (dengue virus type 2, UniProt P29990); assay: Dengue-2 NS5 methyltransferase inhibitors, primary screen, biochemical, confirmation dose response (AID 588689); assay type: functional
Genome polyprotein, sequence (P29990 2492-3391 limits assumed): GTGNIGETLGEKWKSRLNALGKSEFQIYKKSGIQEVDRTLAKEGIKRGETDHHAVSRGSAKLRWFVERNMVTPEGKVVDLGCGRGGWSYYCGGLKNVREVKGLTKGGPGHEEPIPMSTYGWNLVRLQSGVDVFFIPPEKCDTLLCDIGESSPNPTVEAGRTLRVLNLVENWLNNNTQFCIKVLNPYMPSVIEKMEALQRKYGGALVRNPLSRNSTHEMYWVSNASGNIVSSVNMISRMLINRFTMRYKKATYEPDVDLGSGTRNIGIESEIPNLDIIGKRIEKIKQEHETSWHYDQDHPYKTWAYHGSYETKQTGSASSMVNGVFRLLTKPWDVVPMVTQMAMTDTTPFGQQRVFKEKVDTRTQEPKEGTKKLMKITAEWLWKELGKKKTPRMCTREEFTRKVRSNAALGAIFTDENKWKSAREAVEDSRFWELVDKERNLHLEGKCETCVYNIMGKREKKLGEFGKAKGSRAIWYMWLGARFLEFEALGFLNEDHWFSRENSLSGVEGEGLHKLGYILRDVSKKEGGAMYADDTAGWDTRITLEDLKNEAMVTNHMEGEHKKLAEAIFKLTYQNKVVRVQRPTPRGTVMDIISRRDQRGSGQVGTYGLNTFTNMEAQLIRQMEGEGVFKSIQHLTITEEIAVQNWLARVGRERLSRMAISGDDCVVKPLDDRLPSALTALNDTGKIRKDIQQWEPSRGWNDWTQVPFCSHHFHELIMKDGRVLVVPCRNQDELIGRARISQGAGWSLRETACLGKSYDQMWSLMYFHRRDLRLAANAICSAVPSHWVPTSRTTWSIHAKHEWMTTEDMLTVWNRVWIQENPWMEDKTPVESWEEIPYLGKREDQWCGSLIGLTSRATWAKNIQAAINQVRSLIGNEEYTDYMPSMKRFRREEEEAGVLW

Beta-galactosidase = Beta-galactosidase (Escherichia coli, UniProt Q8VNN2); assay: PubChem AID 485352; assay type: functional
Beta-galactosidase, sequence (Q8VNN2 whole entry): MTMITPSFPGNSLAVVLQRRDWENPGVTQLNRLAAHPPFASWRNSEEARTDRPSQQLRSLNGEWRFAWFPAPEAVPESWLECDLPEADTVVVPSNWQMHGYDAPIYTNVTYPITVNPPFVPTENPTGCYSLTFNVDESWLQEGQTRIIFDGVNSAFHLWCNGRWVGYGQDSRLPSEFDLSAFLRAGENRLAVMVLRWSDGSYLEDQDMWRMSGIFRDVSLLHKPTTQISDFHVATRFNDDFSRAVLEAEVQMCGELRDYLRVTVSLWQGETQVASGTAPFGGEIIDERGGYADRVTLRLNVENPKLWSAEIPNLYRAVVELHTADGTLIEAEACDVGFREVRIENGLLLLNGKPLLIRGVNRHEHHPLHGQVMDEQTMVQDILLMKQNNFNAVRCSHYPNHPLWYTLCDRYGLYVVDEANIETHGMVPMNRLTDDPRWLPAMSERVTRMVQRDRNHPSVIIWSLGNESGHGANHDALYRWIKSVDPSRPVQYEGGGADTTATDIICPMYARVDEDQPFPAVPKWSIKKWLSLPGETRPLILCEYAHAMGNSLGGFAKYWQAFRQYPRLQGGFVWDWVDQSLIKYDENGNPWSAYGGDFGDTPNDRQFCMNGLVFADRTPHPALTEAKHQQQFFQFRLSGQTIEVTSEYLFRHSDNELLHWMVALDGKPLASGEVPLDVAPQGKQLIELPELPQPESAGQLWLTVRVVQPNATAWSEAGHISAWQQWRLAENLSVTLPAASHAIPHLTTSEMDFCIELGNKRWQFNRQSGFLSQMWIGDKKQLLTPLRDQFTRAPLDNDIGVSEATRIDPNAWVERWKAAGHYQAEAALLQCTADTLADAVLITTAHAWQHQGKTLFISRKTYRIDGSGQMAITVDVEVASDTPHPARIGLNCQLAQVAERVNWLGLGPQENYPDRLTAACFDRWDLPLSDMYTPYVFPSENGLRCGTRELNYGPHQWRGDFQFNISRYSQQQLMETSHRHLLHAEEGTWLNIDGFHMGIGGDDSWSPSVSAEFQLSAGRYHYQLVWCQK

[4] = molecular target: T3, Type-1 angiotensin II receptor (Homo sapiens, UniProt P30556); assay: AT1 receptor antagonists, dose response, selectivity assay for APJ receptor antagonist project, cell-based, uHTS hits (AID 463214); assay type: functional;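 note: antagonist potency against angiotensin II stimulated AT1 response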
T3 sequence (P30556 whole entry): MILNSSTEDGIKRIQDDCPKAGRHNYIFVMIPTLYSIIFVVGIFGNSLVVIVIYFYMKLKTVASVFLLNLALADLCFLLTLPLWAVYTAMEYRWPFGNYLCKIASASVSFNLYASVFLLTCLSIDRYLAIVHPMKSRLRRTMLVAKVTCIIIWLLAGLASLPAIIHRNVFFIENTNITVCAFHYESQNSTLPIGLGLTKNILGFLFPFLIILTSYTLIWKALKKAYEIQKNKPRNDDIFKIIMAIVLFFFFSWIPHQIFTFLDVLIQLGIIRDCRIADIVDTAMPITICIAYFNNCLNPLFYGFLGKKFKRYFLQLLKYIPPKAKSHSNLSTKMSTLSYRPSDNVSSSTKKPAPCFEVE

HEK293 [5] = assay: inhibitors of LMP1-driven NF-kB reporter, dose response, cell-based, HEK293, luciferase, cherry-pick (AID 588343); assay type: functional; details: Homo sapiens
HEK293 [6] = assay: NOD1 signaling inhibitors, primary screen, cell-based, luminescence, uHTS (AID 1578); assay type: functional; details: Homo sapiens
HEK293 [7] = assay: cells; assay type: functional, cell-based; details: Homo sapiens
HEK293 [8] = assay: cells; assay type: functional, cell-based; details: Homo sapiens; remark: listed apart in the source
[9] = molecular target: Nucleotide-binding oligomerization domain-containing protein 2 (Homo sapiens, UniProt Q9HC29); assay: NOD2 signaling inhibitors, cell-based, luminescence, uHTS, HEK293 (AID 1566); assay type: functional
Nucleotide-binding oligomerization domain-containing protein 2, sequence (Q9HC29 whole entry, the tested form may be a part): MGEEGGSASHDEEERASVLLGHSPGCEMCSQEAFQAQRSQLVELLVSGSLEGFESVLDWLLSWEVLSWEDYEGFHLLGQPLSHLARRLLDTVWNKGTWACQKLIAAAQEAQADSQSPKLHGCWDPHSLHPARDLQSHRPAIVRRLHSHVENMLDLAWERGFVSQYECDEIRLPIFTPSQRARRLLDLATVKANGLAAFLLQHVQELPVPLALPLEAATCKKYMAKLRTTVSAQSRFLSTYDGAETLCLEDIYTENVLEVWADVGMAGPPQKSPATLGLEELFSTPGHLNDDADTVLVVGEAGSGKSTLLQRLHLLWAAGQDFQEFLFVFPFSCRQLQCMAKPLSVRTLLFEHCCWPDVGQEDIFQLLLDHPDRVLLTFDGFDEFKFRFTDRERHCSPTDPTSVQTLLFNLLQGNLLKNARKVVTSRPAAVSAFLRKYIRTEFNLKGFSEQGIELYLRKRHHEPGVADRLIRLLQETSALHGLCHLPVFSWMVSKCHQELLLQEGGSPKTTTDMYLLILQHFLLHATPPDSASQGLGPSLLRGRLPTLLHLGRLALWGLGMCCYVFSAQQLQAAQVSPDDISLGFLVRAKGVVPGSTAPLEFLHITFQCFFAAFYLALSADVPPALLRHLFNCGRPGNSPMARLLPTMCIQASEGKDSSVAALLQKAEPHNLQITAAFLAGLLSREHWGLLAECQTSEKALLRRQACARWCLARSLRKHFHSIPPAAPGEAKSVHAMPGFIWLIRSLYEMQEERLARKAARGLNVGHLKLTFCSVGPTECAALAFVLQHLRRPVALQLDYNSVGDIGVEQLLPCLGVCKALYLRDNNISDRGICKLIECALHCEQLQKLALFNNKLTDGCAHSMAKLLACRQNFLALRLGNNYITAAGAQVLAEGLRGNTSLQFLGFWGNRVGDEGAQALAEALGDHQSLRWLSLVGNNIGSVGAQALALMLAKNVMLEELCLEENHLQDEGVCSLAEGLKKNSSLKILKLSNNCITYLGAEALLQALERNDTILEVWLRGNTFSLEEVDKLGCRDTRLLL

HEK293 [10] = assay: NOD2 signaling inhibitors in MDP-stimulated cells, cell-based, uHTS, luminescence (AID 2001); assay type: functional; details: Homo sapiens
HEK293 [11] = assay: cells; assay type: functional, cell-based; details: Homo sapiens; remark: listed apart in the source
Cytochrome P450 2D6 = Cytochrome P450 2D6 (Homo sapiens, UniProt P10635);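 note: CYP2D6 member of a cytochrome P450 panel assay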
Cytochrome P450 2D6, sequence (P10635 whole entry): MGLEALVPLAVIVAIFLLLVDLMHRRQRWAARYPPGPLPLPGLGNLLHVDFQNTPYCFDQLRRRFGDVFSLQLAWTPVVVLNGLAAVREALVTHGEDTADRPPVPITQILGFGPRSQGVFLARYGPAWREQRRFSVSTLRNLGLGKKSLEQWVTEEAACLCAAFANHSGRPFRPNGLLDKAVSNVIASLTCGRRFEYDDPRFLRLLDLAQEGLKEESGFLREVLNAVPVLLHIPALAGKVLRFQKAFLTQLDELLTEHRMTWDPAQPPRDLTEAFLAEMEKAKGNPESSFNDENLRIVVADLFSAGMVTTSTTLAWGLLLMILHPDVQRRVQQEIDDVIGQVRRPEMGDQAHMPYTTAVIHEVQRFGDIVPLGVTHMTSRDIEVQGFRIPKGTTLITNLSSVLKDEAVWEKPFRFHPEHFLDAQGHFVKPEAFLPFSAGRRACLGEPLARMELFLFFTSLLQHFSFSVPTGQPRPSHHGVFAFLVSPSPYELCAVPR

BJ [12] = assay: cytotoxicity toward BJ-TERT fibroblasts, dose response, cell-based, RAS-independent, luminescence (AID 1933); assay type: functional; details: Homo sapiens
BJ [13] = assay: cells; assay type: functional, cell-based; details: Homo sapiens
BJ [14] = assay: cytotoxicity toward BJ-TERT-LT-ST fibroblasts, dose response, cell-based, RAS-independent, luminescence (AID 1935); assay type: functional; details: Homo sapiens;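 note: BJ fibroblasts immortalized with TERT plus LT and ST oncogenes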
[15] = cytotoxicity toward DRD oncogenic fibroblasts, dose response, cell-based, non-viral oncogenic, luminescence (AID 1934); assay type: functional; details: Homo sapiens
[16] = molecular target: NAD-dependent protein deacylase sirtuin-5, mitochondrial (Homo sapiens, UniProt Q9NXA8); assay: SIRT5 desuccinylase inhibitors, dose response, biochemical, fluorescence imaging, cherry-pick, set 5 (AID 720591);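 note: desuccinylation of succinyl peptide AMC substrate read as fluorescence after trypsin release; potency of inhibitors that lower fluorescence and may act on trypsin instead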
Cytochrome P450 2C19 = Cytochrome P450 2C19 (Homo sapiens, UniProt P33261); assay: Cytochrome panel assay with activity outcomes. Panel member name: p450-cyp2c19 Compounds with AC50 equal or less than 10 uM are considered active; assay type: functional; details: read-out: AC50
Cytochrome P450 2C19, sequence (P33261 whole entry): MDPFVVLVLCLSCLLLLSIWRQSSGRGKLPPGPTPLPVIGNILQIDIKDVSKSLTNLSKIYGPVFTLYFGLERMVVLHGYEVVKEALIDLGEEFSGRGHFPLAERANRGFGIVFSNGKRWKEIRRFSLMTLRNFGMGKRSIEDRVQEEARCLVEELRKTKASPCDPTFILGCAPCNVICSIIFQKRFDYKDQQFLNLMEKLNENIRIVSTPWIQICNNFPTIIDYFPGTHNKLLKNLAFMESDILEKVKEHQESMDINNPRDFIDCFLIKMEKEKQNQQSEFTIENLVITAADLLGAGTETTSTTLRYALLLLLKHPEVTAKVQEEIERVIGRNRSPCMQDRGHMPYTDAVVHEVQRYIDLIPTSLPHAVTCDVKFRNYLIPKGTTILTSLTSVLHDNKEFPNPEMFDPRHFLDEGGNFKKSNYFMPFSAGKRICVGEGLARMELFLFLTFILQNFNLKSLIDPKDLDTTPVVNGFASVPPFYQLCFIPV

Cytochrome P450 3A4 = Cytochrome P450 3A4 (Homo sapiens, UniProt P08684);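 note: CYP3A4 tested as one member of a cytochrome P450 panel screen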
Cytochrome P450 3A4, sequence (P08684 whole entry): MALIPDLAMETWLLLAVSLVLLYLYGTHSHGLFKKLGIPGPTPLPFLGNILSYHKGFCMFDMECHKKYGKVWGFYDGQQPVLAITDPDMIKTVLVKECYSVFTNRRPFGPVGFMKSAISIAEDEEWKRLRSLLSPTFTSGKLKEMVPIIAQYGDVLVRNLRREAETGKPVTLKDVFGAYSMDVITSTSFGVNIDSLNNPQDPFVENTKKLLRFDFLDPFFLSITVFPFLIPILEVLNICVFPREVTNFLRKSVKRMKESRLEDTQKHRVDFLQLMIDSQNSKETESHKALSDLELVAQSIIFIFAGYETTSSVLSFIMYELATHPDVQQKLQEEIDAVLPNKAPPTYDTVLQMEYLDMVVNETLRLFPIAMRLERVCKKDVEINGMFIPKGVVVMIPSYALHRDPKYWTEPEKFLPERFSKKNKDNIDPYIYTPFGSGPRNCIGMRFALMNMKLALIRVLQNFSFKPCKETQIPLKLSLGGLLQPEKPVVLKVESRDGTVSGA

AC50 (Cytochrome P450 1A2): 10 µM (inconclusive) | AC50 (Cytochrome P450 2C9): inconclusive
SMILES: O=C(c1coc(=O)c2ccccc12)N1CCN(Cc2ccccc2)CC1

SMILES: Cc1nn(Cc2ccccc2)c(Cl)c1C(=O)NC1CCCc2ccccc21 (stereo not drawn)
IC50 [1]: 6.77 µM (active) | EC50 [2]: > 53 µM (inactive) | IC50 [3]: 11.9 µM (active)

IC50 (Genome polyprotein): 90.7 µM (active)
SMILES: CCOC(=O)c1sc(N2N=C(C)/C(=C\c3ccc(OCC(=O)OC)cc3)C2=O)nc1C
CC50 (Vero): 39.2 µM (active)

EC50 (Beta-galactosidase): > 40 µM (inactive) | IC50 [4]: > 40 µM (not active) | AC50 (Cytochrome P450 2C9): inconclusive
SMILES: CCCCNC(=S)NNC(=O)CCn1nc(C)c(Br)c1C

SMILES: CN(C)c1ccnc2sc(C(N)=O)c(N)c12
AC50 (HEK293 [5]): 3.08 µM (active)

SMILES: COCC(C)n1c(C)cc(C(=O)COc2ccc(C)nc2[N+](=O)[O-])c1C (stereo not drawn)
EC50 (HEK293 [6]): > 20 µM (inactive) | IC50 (HEK293 [7]): 6.88 µM (active) | IC50 (HEK293 [8]): > 20 µM (inactive) | EC50 [9]: 16.7 µM (active) | IC50 (HEK293 [10]): > 20 µM (inactive) | IC50 (HEK293 [11]): > 20 µM (inactive)

SMILES: Clc1ccccc1NN(Cc1ccncc1)c1ccccc1Cl
IC50 [1]: < 0.368 µM (active) | EC50 [2]: > 53 µM (inactive) | IC50 [3]: > 20 µM (inactive) | AC50 (Cytochrome P450 2D6): 3.16 µM (inconclusive)

SMILES: CC(C)OC(=O)c1ccccc1C(=O)c1ccc(N)c([N+](=O)[O-])c1
EC50 (BJ [12]): > 150 µM (not active) | EC50 (BJ [13]): > 150 µM (not active) | EC50 (BJ [14]): > 150 µM (not active) | EC50 [15]: > 150 µM (not active) | IC50 [1]: 38.6 µM (active) | EC50 [2]: > 53 µM (inactive) | IC50 [3]: > 20 µM (inactive)

AC50 [16]: 8.75 µM (active)
SMILES: COc1ccc(C(=O)Nc2cc(O)nc3ncnn23)cc1

AC50 (Cytochrome P450 2C19): 25.1 µM (inconclusive) | AC50 (Cytochrome P450 3A4): 39.8 µM (inconclusive) | AC50 (Cytochrome P450 2C9): inconclusive
SMILES: Cc1cccc(Oc2coc3cc(OC(=O)c4cc5ccccc5oc4=O)ccc3c2=O)c1

AC50 (Cytochrome P450 2C9): inconclusive
SMILES: O=S(=O)(CC(O)COc1ccccc1Cl)c1ccccc1 (stereo not drawn)
